Laboratory results: patent US20260355318A1, “MOLECULAR MACHINES FOR TREATMENT OF CANCER, FUNGAL INFECTIONS, OR BACTERIAL INFECTIONS” (priority 2022, published 2026)
In brackets after ≈: the same amount, converted by molar mass.

Key:
[1] = Estimated rotation rate after light activation; conditions: for estimated rotation rate after light activation: based on known motors with similar core skeletons
[2] = test system: P. aeruginosa; test: MIC, P. aeruginosa; format: cell-based, Pseudomonas aeruginosa
Protocol: (§1) The appropriate volume of an MM stock at 8 mM necessary to achieve a concentration ranging from 0.3125 to 40 μM was pipetted into a 2 mL microcentrifuge tube to which 1 mL of cell suspension prepared as previously described was added. Corresponding negative controls (DMSO only) were prepared in the same way. The mixture was gently mixed by pipetting and incubated in the dark at 30 or 37 ° C, depending on the strain, for 30 min with agitation (220 rpm). Afterward, MM- or DMSO-treated cells were dispensed in one well of a 24-well plate positioned in the center of the light beam (405 nm LED Light, Prizmatix, UHP—F-5-405) placed at the appropriate distance necessary to achieve the desired light intensity of 304 mW cm-2, 146 mW cm2 or 87 mW cm2, as measured with a handheld digital power meter console coupled to an S415C thermal power sensor head (Thorlabs, Newton, MA, USA). The temperature during irradiation was monitored using a thermocouple probe (Model SC-TT-K-30-36-PP; Omega Engineering, Inc., Stanford, CT, USA). Samples were agitated during irradiation. Dark controls were prepared as previously described except that no irradiation was provided.
(§2) For MIC determination, samples treated with a range of concentrations of the different MM, as described above and were irradiated one at a time for 5 min at 146 mW cm^−2 (43.8 J cm^−2), after which irradiated aliquots were collected and inoculated into 1 mL MHB in a 2 mL microcentrifuge tube. Samples were incubated overnight at 30 or 37 ° C, depending on the strain, without agitation. Corresponding non-irradiated samples and negative controls (without bacteria) were also included. The following day, cultures were inspected for growth and the MIC was identified. The experimental procedure used to determine the MIC of visible light-activated MMs is schematically depicted in FIG. 26.

[3] = test system: E. coli; test: MIC, E. coli; format: cell-based, Escherichia coli BW25113; conditions: E. coli, broth microdilution; for MIC: Escherichia coli, read-out: Antibiotic MIC
[4] = test system: S. aureus; test: MIC, S. aureus; format: cell-based, Staphylococcus aureus; conditions: S. aureus, broth microdilution
Protocol: as §1, §2

[5] = test system: A. baumannii; test: MIC, A. baumannii; format: cell-based, Acinetobacter baumannii; conditions: Acinetobacter baumannii, read-out: Antibiotic MIC
Protocol: as §1, §2

[6] = test system: C. albicans; test: Killing of C. albicans by MM 1 in de-energized, inhibited, uncoupled cells or with scavengers; format: cell-based, Candida albicans; conditions: for effect of scavenger on MM-induced killing: MM 1 2×MIC
Protocol: FIG. 8: Survival curves of de-energized versus exponential, fully energized cells of C. albicans treated with visible-light-activated MM 1 (2×MIC). Energy depletion of C. albicans was achieved by resuspending cells in de-energization buffer (1 μM antimycin A, 5 mM 2-deoxy-D-glucose, 50 mM HEPES buffer, pH 7.0) for 3 h, as described for the determination of efflux pump activity in Example 1. Survival curves were generated according to the procedure described in Example 1 for time-kill assays. The dashed line indicates the detection limit of the method. The results are expressed as the average of at least three independent replicates±the standard error of the mean.
FIG. 9: Effect of pre-treatment with drugs targeting different individual components of the electron transport chain (see table inset) on the killing of C. albicans by light-activated MM 1 (2×MIC). Survival curves were generated according to the procedure described in Example 1 for time-kill assays. The dashed line indicates the detection limit of the method. The results are expressed as the average of at least three independent replicates±the standard error of the mean.
FIG. 10: Effect of pre-treatment with the uncoupling agents carbonyl [COMPOUND LEFT OUT] 4-(trifluoromethoxy)phenylhydrazone (FCCP) and carbonyl [COMPOUND LEFT OUT] 3-chlorophenylhydrazone (CCCP) on the killing of C. albicans by light-activated MM 1 (2×MIC). Survival curves were generated according to the procedure described in Example 1 for time-kill assays. The dashed line indicates the detection limit of the method. The results are expressed as the average of at least three independent replicates #the standard error of the mean.
Survival curves were generated according to the procedure described in Example 1 for time-kill assays. The dashed line indicates the detection limit of the method. The results are expressed as the average of at least three independent replicates±the standard error of the mean.
FIGS. 12A-12C show the effect of growth in the presence of different reactive oxygen species (ROS) scavengers and the iron scavenger 2,2′-dipyridyl (DP) on MM 1-induced killing of C. albicans. […] The results are expressed as the average of at least three independent replicates±the standard error of the mean. (FIG. 12B) Growth curves of C. albicans in the presence and absence of the iron scavenger DP, determined by monitoring the absorbance at 630 nm over time in a microplate reader. […] (FIG. 12C) Time profiles of mitochondrial ROS levels in C. albicans grown with and without DP after treatment with visible-light-activated MM 1 (2×MIC), detected with the MitoROS™ 580 fluorescent probe, according to the experimental procedure described in Example 1. […]

[7] = test system: C. albicans; test: MIC, visible-light-activated MMs and conventional antifungals, C. albicans; format: cell-based, Candida albicans (ATCC 18804); conditions: Candida albicans, read-out: MIC of antifungal agent
Protocol: C. albicans cell suspensions were incubated with increasing concentrations of MMs and irradiated with 405-nm light at 292 mW cm^−2 for 5 min (87.6 J cm^−2). The minimum inhibitory concentration (MIC) was defined as the MM concentration resulting in no visible fungal growth after irradiation with 87.6 J cm^−2 of 405-nm light.
Cell suspensions for susceptibility testing (MMs and conventional antifungals) were prepared per the Clinical & Laboratory Standards Institute (CLSI) guidelines (CLSI, 2017; CLSI, 2008). Before testing, yeasts (C. albicans and S. cerevisiae) were sub-cultured in Sabouraud Dextrose Agar-Emmons Modification (SDAE) plates and grown for 24 h at 30 °C. Five independent colonies from 24-h-old plates were collected and diluted to ~10^4 colony forming units (CFU) per mL in sterile saline (CLSI, 2017). Molds (A. fumigatus and the dermatophytes T. rubrum and M. gypseum) were sub-cultured on SDAE medium and incubated for 7 days at 28 °C. Conidia were recovered by covering the plates with sterile distilled water and scraping the colonies. The suspensions were filtered (8-μm pore size) and diluted in saline to ~10^4 CFU mL^−1 (Santos and Hamdan, 2005).
After a 30-min incubation in the dark, cell suspensions were transferred to small, sterilized glass beakers, which were then placed in a water bath. Each sample was irradiated with 405-nm light at 292 mW cm^−2 for 5 min, corresponding to a light dose of 87.6 J cm^−2, determined using an S415C thermal power sensor (Thorlabs, Newton, MA, USA). During irradiation, the cell suspensions were agitated with a small metal stirrer. A thermocouple probe (model SC-TT-K-30-36-PP; Omega Engineering, Inc., Stanford, CT, USA) was used to monitor the temperature during irradiation. Irradiated cell suspensions were inoculated in 3-(N-morpholino) propanesulfonic acid (MOPS)-buffered Roswell Park Memorial Institute Medium (RPMI) 1640 (pH 7.0). Tubes were incubated at 30 ° C for 48 h (yeasts) and 28 ° C for 7 days (molds). The antifungal or MM concentration resulting in no visible growth was defined as the minimum inhibitory concentration (MIC) (CLSI, 2017; CLSI, 2008). Similarly prepared cell suspensions were used to determine the MIC of conventional antifungals.

[8] = test system: E. coli; test: Checkerboard interaction with antibiotics (MIC, FIC index), E. coli; format: cell-based, Escherichia coli
Protocol: To evaluate synergy between conventional antibiotics and MM in E. coli, the fractional inhibitory concentration (FIC) index (Hall et al., 1983) was determined using a modified checkerboard microtiter test in an 8-by-8 well configuration. Briefly, E. coli cell suspensions were prepared as described for MIC determination with an increasing concentration (0.1-40 μM) of the different MMs, followed by irradiation for 5 min at 146 mW cm^−2. […] The FIC was calculated after dividing the MIC of each antibiotic in combination with different MM by the MIC of the antibiotic alone. The FIC index, obtained by adding both FICs, was interpreted as indicating a synergistic effect if it was ≤0.5, as additive or indifferent if it was >0.5 and ≤2.0, and as antagonistic if it was >2.0 (Hall et al., 1983).

C[C@@H]1Cc2ccc3c(NCCN(C)C)cccc3c2C1=C1c2ccccc2Sc2ccccc21 (racemic) [DL-5-901]
estimated rotation rate after light activation [1]: 3 MHz

Gentamicin [reference compound]
Antibiotic MIC ([2]; P. aeruginosa, broth microdilution): 1 μg per mL | Antibiotic MIC [3]: 1 μg per mL | Antibiotic MIC [4]: 2 μg per mL

COc1cc(Cc2cnc(N)nc2N)cc(OC)c1OC [Trimethoprim, reference compound]
MIC ([2]; Pseudomonas aeruginosa, read-out: Antibiotic MIC): 128 µg/mL (≈ 441 µM) | MIC [3]: 1 µg/mL (≈ 3.44 µM)

COc1cc2c(c3ccccc13)/C(=C1\c3ccccc3Sc3ccc(NCCN(C)C)cc31)[C@H](C)C2 (racemic) [DL-5-872]
estimated rotation rate after light activation [1]: 3 MHz

CN(C)[C@@H]1C(O)=C(C(N)=O)C(=O)[C@@]2(O)C(O)=C3C(=O)c4c(O)cccc4[C@@](C)(O)[C@H]3C[C@@H]12 [Tetracycline, reference compound]
MIC [5]: 8 µg/mL (≈ 18 µM)

c1ccc(-c2ccccn2)nc1 [2,2′-dipyridyl]
effect of scavenger on MM-induced ROS generation [6]: did not impact MM-induced ROS generation | effect of scavenger on MM-induced killing [6]: mitigation of MM-induced killing

C[C@@H]1CSc2ccc3ccccc3c2/C1=C1\c2ccccc2Sc2cc(NCCN(C)C)ccc21 [ARV-3-202, reference compound]
estimated rotation rate of slow MM [1]: ~ 10^−6 Hz

Nc1nc(=O)[nH]cc1F [5-Fluorocytosine (5-FC), 5-Fluorocytosine]
MIC [7]: 1 µg/mL

CC1(C)CC(NC(=O)C[P+](c2ccccc2)(c2ccccc2)c2ccccc2)CC(C)(C)N1[O] [MitoTEMPO]
effect of scavenger on MM-induced ROS generation [6]: reduced ROS generation | effect of scavenger on MM-induced killing [6]: did not affect survival following MM treatment

CO[C@@H]1[C@@H](OC(N)=O)[C@@H](O)[C@H](Oc2ccc3c(O)c(NC(=O)c4ccc(O)c(CC=C(C)C)c4)c(=O)oc3c2C)OC1(C)C [Novobiocin]
MIC [3]: 64 µg/mL (≈ 104 µM) | potentiation of antibiotic by MM pre-treatment ([8]; E. coli): up to 64 fold | FIC index with MM ([8]; E. coli, MM and novobiocin): ≤ 0.5 | antibiotic MIC after pre-treatment with MM 1 ([8]; E. coli, light-activated MM 1): 0.0075 µg/mL | antibiotic MIC after pre-treatment with MM 5 ([8]; E. coli, light-activated MM 5): 0.0075 µg/mL | antibiotic MIC after pre-treatment with MM 6 ([8]; E. coli, light-activated MM 6): 0.015 µg/mL | MIC ([8]; Escherichia coli, 18 h, read-out: antibiotic MIC alone): 0.48 µg/mL

CC1(C)S[C@@H]2[C@H](NC(=O)[C@H](N)c3ccccc3)C(=O)N2[C@H]1C(=O)O [Ampicillin, reference compound]
MIC [3]: 0.063 µg/mL (≈ 0.18 µM)

C[C@@H]1Cc2ccc3c(N(C)CCN(C)C)cccc3c2C1=C1c2ccccc2Sc2ccccc21 (racemic) [DL-5-902]
estimated rotation rate after light activation [1]: 3 MHz

O=C(O)c1cn(C2CC2)c2cc(N3CCNCC3)c(F)cc2c1=O [Ciprofloxacin, reference compound]
MIC [3]: 0.008 µg/mL (≈ 0.0241 µM)

C[C@@H]1Cc2ccc3c(NCCN)cccc3c2C1=C1c2ccccc2Sc2ccccc21 (racemic) [DL-5-903]
estimated rotation rate after light activation [1]: 3 MHz

OC(Cn1cncn1)(Cn1cncn1)c1ccc(F)cc1F [Fluconazole (FLC), Fluconazole]
MIC [7]: 0.5 µg/mL
